Data reported in US20260283950A1, “TRI-AZOLE ANTIFUNGAL COMPOSITIONS” (priority 2023, published 2026).
Blank lines part the entries; values can stand above or below the compound they belong to.

Columns and labels:
[1] = Preparation of solutions in semifluorinated alkanes, appearance of the composition; format: physicochemical
Procedure: 14 mg efinaconazole (purity >99%) is weighed in a 5-ml glass vial; 2 ml F6H8 (Novaliq, purity >99%) is added into the vial by using a pipette, closed with aluminium crimp cap and shaken for 4 hours at 280 mpm, at RT.
20 mg efinaconazole (purity >99%) is weighed in a 5-ml glass vial; the needed volume of the cosolvent is added into the vial by using a pipette; the vial is shaken by hand gentle; the needed volume of F6H8 (Novaliq, purity >99%) is added by using a pipette, closed with aluminium crimp cap and shaken for 4 hours at 280 mpm, at RT.
Following the procedure described in the Examples 1 and 2, the following compositions were prepared (Table 1):
20 mg terbinafine (free base; purity >98%) is weighed in a 5-ml glass vial; 2 ml F6H8 (Novaliq, purity >99%) is added into the vial by using a pipette, closed with aluminium crimp cap and shaken overnight at 280 mpm, at RT.
Following the aforementioned procedure the following compositions were prepared (Table 6): […]

[2] = tested on: T. interdigitale; assay: In vitro nail penetration/inhibition model (Bovine Hoof Sheets soaked in product, zone of inhibition); format: cell-based; conditions: BHS soaked 24 hours in product, incubation at 28° C. 5 days
Procedure: Three test products containing 0.1% to 10% efinaconazole were tested in vitro for their capabilities to inhibit growth of a representative dermatophyte (T. interdigitale) that is known to cause onychomycosis and tinea pedis in humans: • (a) 0.1% efinaconazole, dissolved in a mixture of F6H8 and 2-propanol (10:1 v/v %), non-aqueous (8-9), • (b) 1.0% efinaconazole, dissolved in a mixture of F6H8 and 2-propanol (9:1 v/v %), non-aqueous (4-7), • (c) 10% efinaconazole, aqueous commercial product (“Jublia”; Bausch Health, Bridgewater, USA) (10-11). As reference products, DMSO was utilized as negative control (1), terbinafine (100 μg/ml in DMSO) as positive control (2) and F6H8 as vehicle control (3). […] Bovine Hoof Sheets (BHS; 400 μm thickness, 16 mm diameter), an established in vitro surrogate for human nails in transungual permeation studies, were soaked in excess in the three test products and the three reference products for 24 hours. Afterwards the BHS were taken from the soaking baths and remaining residues of the test and reference products were thoroughly removed. Then, BHS were transferred and placed onto freshly plated T. interdigitale culture plates. […] Experimental details and results are depicted in Table 2 below: […]

Appearance ([1]; 7 mg/mL efinaconazole in F6H8, no cosolvent): clear solution
Appearance ([1]; 10 mg/mL efinaconazole, F6H8 (90 vol %), 2-propanol (10 vol %)): clear solution
Appearance ([1]; 15 mg/mL efinaconazole, F4H5 (90 vol %), 2-propanol (10 vol %)): clear solution
Appearance ([1]; 15 mg/mL efinaconazole, F4H10 (90 vol %), 2-propanol (10 vol %)): clear solution
Appearance ([1]; 15 mg/mL efinaconazole, F6H8 (85 vol %), 2-propanol (10 vol %), 1-Methyl-2-pyrrolidon (5 vol %)): clear solution
Appearance ([1]; 15 mg/mL efinaconazole, F6H8 (85 vol %), 2-propanol (10 vol %), Ethyl acetate (5 vol %)): clear solution
Appearance ([1]; 15 mg/mL efinaconazole, F6H8 (85 vol %), 2-propanol (10 vol %), N,N-Dimethyl acetamide (5 vol %)): clear solution
Appearance ([1]; 15 mg/mL efinaconazole, F6H8 (85 vol %), 2-propanol (10 vol %), N,N-Dimethyl formamide (5 vol %)): clear solution
Appearance ([1]; 25 mg/mL efinaconazole, F6H8 (75 vol %), 2-propanol (25 vol %)): clear solution
Compound: C=C1CCN([C@H](C)[C@](O)(Cn2cncn2)c2ccc(F)cc2F)CC1 [Efinaconazole, efinaconazole]

Appearance ([1]; 1 mg/mL terbinafine in F4H5, no cosolvent): clear solution
Appearance ([1]; 1 mg/mL terbinafine in F6H8, no cosolvent): clear solution
Appearance ([1]; 5 mg/mL terbinafine in F4H5, no cosolvent): clear solution
Appearance ([1]; 5 mg/mL terbinafine in F6H8, no cosolvent): clear solution
Appearance ([1]; 10 mg/mL terbinafine in F6H8, no cosolvent): clear solution
Appearance ([1]; 10 mg/mL terbinafine, F4H5, ethanol (10 vol %)): clear solution
Appearance ([1]; 10 mg/ml terbinafine, F6H8 (90 vol %), 2-propanol (10 vol %)): clear solution
Appearance ([1]; 15 mg/mL terbinafine in F6H8, no cosolvent): clear solution
Appearance ([1]; 20 mg/mL terbinafine, F6H8 (90 vol %), ethanol (10 vol %)): clear solution
Appearance ([1]; 20 mg/ml terbinafine, F6H8 (90 vol %), 2-propanol (10 vol %)): clear solution
Compound: CN(C/C=C/C#CC(C)(C)C)Cc1cccc2ccccc12 [terbinafine]
Results (inhibition zone, in words) [2]: nearly complete inhibition
zone of inhibition at 100 µg/mL ([2]; Trichophyton interdigitale, 120 h, read-out: zones of inhibition): 56 to 58 mm
